Data from US9915659B2, “Systems and methods for prognosticating brain tumors” (Cedars-Sinai Medical Center, priority 2013, dated 2018).
Entries after “also recorded” stand apart in the source; their conditions may differ.

Experiments:
[1] = system: GBM patients; assay: Survival of temozolomide-treated GBM patients stratified by ZEB1 copy number and MGMT expression; type: in vivo, human; conditions: temozolomide treatment
Text: Given our observations that ZEB1 and CD133 expression imparts GSC resistance to differentiation and impacts patient survival, we considered if ZEB1 loss would impact response to therapy. To do this, we explored the role of 06-methylguanine-DNA methyltransferase (MGMT) which removes DNA alkylating agents and therefore hinders the effectiveness of chemotherapeutic alkylating agents including temozolomide.^28 The MGMT promoter region has been shown when hypermethylated to suppress MGMT activity conferring chemosensitivity resulting in favorable prognosis compared to the hypomethylated state of MGMT which results in poor patient outcomes. MGMT expression is inversely correlated to its methylated state. We sought to determine the effect of ZEB1 loss on the clinical impact of hypermethylation of MGMT in the presence of temozolomide.
MGMT expression is inversely correlated to its methylated state. We sought to determine the effect of ZEB1 deletion on the clinical impact of hypermethylation of MGMT in the presence of temozolomide.

[2] = system: GBM patients; assay: Kaplan-Meier overall survival of GBM patients treated with or without bevacizumab, stratified by ZEB1 copy number (study set J / data set of 78 GBM patients); type: in vivo, human
Text: Data are expressed as mean±s.e.m. Kaplan-Meier curves and p values were generated using Prism 6.0v. Two-tailed student's t-test, were used. A P value of *<0.05 was considered significant.

[3] = system: glioblastoma patients; assay: Overall survival of 403 glioblastoma patients treated with or without bevacizumab, stratified by ZEB1 expression; type: in vivo, human; conditions: general patient population
Text: Studies reported OS results by ZEB1 status and permutations of ZEB1/IDH1 status via (1) Kaplan-Meier curves, (2) hazard ratios (HRs) and corresponding 95% confidence intervals, (3) c-statistic. We translated all reports of survival outcomes to the number of events and the survival time. Patients not experiencing event were censored at the last follow-up date.
Data are presented as frequency (percentage, %) for categorical variables and median (IQR, interquartile range) for continuous variables. ZEB1 and IDH1 mRNA values were log base 2 transformed. Univariate associations between variables were examined with Wilcoxon rank-sum test, chi-square test, or Spearman rank correlation, where appropriate. A Cox proportional hazards regression model was employed in univariate and multivariable analyses to identify variables that predict OS. The proportional hazards assumption was evaluated with Schoenfeld residuals and a Kolmogorov-type supremum test. Hazard ratios (HRs) were expressed as an increase from the 25th to 75th percentile in continuous variables. Multivariable analysis was further carried out with the Cox proportional hazards model to examine whether an improvement in predictive discriminatory power was obtained when ZEB1 was added to the model containing the known marker, IDH1 and age. […]

[4] = system: GBM patients; conditions: two recent phase III trials; cited from earlier work
[5] = system: GCSCs; assay: ZEB1 expression by qRT-PCR in GCSCs treated with IFN-γ; type: cell-based, human; conditions: IFN-γ 3 days (200 ng/ml)
Method: FIGS. 15A-15J depict, in accordance with various embodiments of the present invention, effect of IFN-γ on LIF and ZEB1 activation in patient derived glioma cancer stem cells (GCSCs). (FIG. 15A) GCSCs were treated with IFN-γ for 3-days and ZEB1 expression levels were determined by qRT-PCR. (FIG. 15B) The percentage of CD133^+ GCSCs in the presence and absence of IFN-γ were determined by flow cytometry. GCSCs were incubated with IFN-γ for 7-days. (FIG. 15C) The effects of IFN-γ on secondary neurosphere formation. […] (FIG. 15E) Spearman correlation between LIF and ZEB1 GBM patients (n=28), rank correlation (R) and two-tailed significance is shown. (FIG. 15F) ZEB1 binding motifs within the LIF promoter (CAGGTG, ***P<0.0001 and CAGGTA,***P<0.0001). […]
To generate GSCs that stably express short hairpin RNAs (shRNAs) that target ZEB1, we co-transfected shRNA (Origene, Rockville Md.),—that target ZEB1 into our 0827 or 0323 GSCs, with a VSV-G expression plasmid (Clontech) into the GP2-293 packaging cell line (Clontech) according to the manufacturer's instructions. […] Cells that were resistant to puromycin were characterized for ZEB1 expression by immunoblotting and subsequent cell proliferation using 5-ethynyl-2′-deoxyuridine (EdU) Click-IT assay (Life Technologies) using fluorescence activated cell sorting (FACs) analysis according to the manufacturer's instructions. […]

[6] = system: GSCs; assay: CD133 staining of GSCs by flow cytometry (FACs); type: cell-based, human; conditions: IFN-γ 7 days (100 ng/ml)
Method: (§1) GSCs were washed with 1× PBS buffer 3 times and resuspended in 1× PBS. GSCs were fixed in 4% formaldehyde for 15 min at room temperature. Cells were washed with 1× PBS buffer and were incubated in 0.1% Triton X-100 for 5 min, washed and then incubated with FcR Blocker (Mitenyi Biotech) followed by incubation with CD133 antibody conjugated to Phycoerythrin (PE) or although not shown an isotype control was also performed (Mitenyi Biotech), protected from light for 1 hr at room temperature. Cells were washed and analyzed on a FACscan flow cytometer (BD Biosciences, San Jose, Calif.).
as §1, with “performed (Miltenyi” for “performed (Mitenyi”, “1 […]” for “1 hr”, “(BD Biosciences).” for “(BD Biosciences, San Jose, Calif.).”
GCSCs were washed with 1× PBS buffer 3 times and resuspended in 1× PBS. GCSCs were fixed in 4% formaldehyde for 15 min at room temperature. […] Cells were washed and analyzed on a FACscan flow cytometer (BD Biosciences). […]

[7] = system: GSCs; assay: Neurosphere formation and limiting dilution sphere-forming assay; type: cell-based, human; conditions: IFN-γ treated GSCs
Method: (§2) Neural Basal A media (Invitrogen) supplemented with EGF and bFGF (R&D Systems) were used to culture primary patient derived glioma stem cells (GSCs) which were dissociated into single cells sorted for CD133 expression and plated onto 24 well plates with various seeding densities (4-100 cells/well). GSCs were incubated at 37° C. at 5% CO2 for 2 to 3 weeks. GSCs were then quantified for neurosphere formation.
as §2, with “GCSCs” for “glioma stem cells (GSCs)”, “GCSCs” for “GSCs”

[8] = system: LIF promoter; assay: LIF luciferase reporter assay in GCSCs; type: cell-based, human; conditions: IFN-γ 200 ng/mL 72 hrs; all constructs except −109/+10 region
Method: (§3) To measure transcriptional activity of LIF, 0827 GSCs (1×10^4 cells per transfection, three replicates per condition) were transiently transfected with one of several deletion LIF luciferase reporter plasmids (1 ug; Switchgear) with the use of X-treme gene HP DNA (Roche), seeded in six-well plates (1×10^4 cell per well), and incubated for 48 hrs. IFN-γ cytokine (200 ng/mL) was added to the cultures and the cells were incubated for 72 hrs. The cells were harvested and the luciferase activity was measured with the use of a GloMax 20/20 Luminometer (Promega, Madison, Wis.). These experiments were carried out in triplicate on three different occasions.
as §3, with “GCSCs” for “GSCs”, “IFN-6” for “IFN-γ”, “occasions. […]” for “occasions.”

**Q.** With `Cn1nnc2c(C(N)=O)ncn2c1=O` [temozolomide] as the molecule, how does the “hazard ratio, patient survival, ZEB1 deletion vs wildtype ZEB1” value ([1]; high MGMT expression (n=121)) read?
**A.** The value was 1.59.

**Q.** And the “hazard ratio, patient survival, ZEB1 deletion vs wildtype ZEB1” value ([1]; low MGMT expression (n=115))?
**A.** Its value is 1.56.

**Q.** What does the source list for bevacizumab?
**A.** effect on patient survival ([2]; ZEB1 deleted patients): significant survival benefit; also recorded: increase in survival; effect on patient survival ([2]; ZEB1 intact / ZEB1 wt patients): no change in survival; also recorded: no effect; effect on patient survival ([2]; general patient population, independent data set of 78 GBM patients): did little to alter patient survival; effect on patient survival [3]: did little to alter patient survival; survival advantage in GBM patients [4]: no survival advantage

B1: IFN-γ: proinflammatory cytokine interferon gamma (eBioscience) (protein, UniProt P01579 24-161, looked up)
Interferon gamma: QDPYVKEAENLKKYFNAGHSDVADNGTLFLGILKNWKEESDRKIMQSQIVSFYFKLFKNFKDDQSIQKSVETIKEDMNVKFFNSNKKKRDDFEKLTNYSVTDLNVQRKAIHELIQVMAELSPAAKTGKRKRSQMLFRG
**Q.** Which results are given for B1?
**A.** ZEB1 induction (expression) vs untreated [5]: significant increase; also recorded: induced; CD133 expression [6]: decreased; secondary neurosphere formation [7]: decreased; self-renewal capabilities vs untreated ([7]; limiting dilution): decreased; LIF transcriptional activity (luciferase deletion constructs) [8]: suppressive effect
